Data as given in article PMC12655659, “Population Pharmacokinetics of Radotinib in Healthy Volunteers and Patients with Chronic Myeloid Leukemia” (Pharmaceuticals, 2025).
Read-outs that look alike come from different tables or passages of the source. Blank lines part the entries; values can stand above or below the compound they belong to.

Columns and labels:
[1] = set-up: method as in ref 23 = [23]; 23. Lee Y. Kang M. Kim J. Han J. Kim N.Y. Shin J.S. Park M.S. Kim C.O. Jin B.H. Choi M.K. Clinical pharmacokinetic characteristics and the effect of food on radotinib in healthy volunteers Proceedings; conditions: healthy volunteers; cited from earlier work
[2] = Population pharmacokinetic model (nonlinear mixed-effects modeling) of radotinib plasma concentrations in healthy volunteers and patients with CML-CP; assay type: in vivo, human; conditions: for half-life: human, plasma, oral, read-out: terminal half-life (t1/2), population estimate (converted)
Method: Two clinical PK studies of radotinib were performed in healthy volunteers and patients with CML-CP. The two studies were approved by the institutional review board (IRB) of Severance Hospital and Peking University People’s Hospital (IRB numbers 4-2024-0489 and 2018PHA053, respectively) and were conducted in accordance with the Declaration of Helsinki and the International Council for Harmonization Good Clinical Practice (ICH-GCP) guidelines. All participants provided written informed consent prior to any study-related procedures. The studies were registered at ClinicalTrials.gov (identifiers: NCT06461078 and NCT03722420). The present population PK study was performed using pooled data from two clinical studies.
The first study (NCT06461078) included healthy male adult volunteers aged 19 to 55 years, weighing 55 kg or heavier, with a body mass index (BMI) between 18.5 kg/m^2 and 27.0 kg/m^2. Individuals with a history of clinically significant psychiatric or comorbid conditions such as severe hepatic impairment, severe renal impartment, long QT syndrome; a history of gastrointestinal disorders or surgeries that may have affected the absorption of radotinib; or suspected symptoms of acute illness at the time of screening were excluded. Also excluded were individuals with concomitant medications or foods that may have interfered with the study outcomes as well as those with excessive consumption of caffeine, alcohol or tobacco. Individuals were also ineligible if they had participated in other clinical trials within 180 days, donated whole blood within 60 days or blood components within 30 days or received a blood transfusion within 30 days prior to the administration of radotinib. Study participants received a single oral dose of 400 mg radotinib under fasting conditions. Serial blood samples were collected from forearm veins of participants pre-dose and at 0.5, 1, 2, 3, 4, 5, 6, 8, 10, 12, 18, 24, 32 and 48 h post-dose.
The second study (NCT03722420) included patients aged 18 years or older with a confirmed diagnosis of Ph+ CML-CP within last 6 months, typical BCR-ABL1 transcript type and normal organ function. Patients with a T315I mutation in the BCR-ABL1 gene; a history of radiotherapy, interferon or other targeted anti-leukemic therapies; or clinically significant comorbidities were excluded. Patients were also ineligible if they had participated in other investigational studies within the past 3 months or were taking therapeutic coumarin derivatives; a moderate or strong CYP3A4 inhibitor or inducer; or medications that may have prolonged the QT interval. Study participants were orally administered 300 mg radotinib twice daily under fasting conditions. Serial blood samples were obtained from forearm veins pre-dose and at 1, 2, 3, 4, 6, 8 and 12 h post-dose on Days 1 and 14.
All samples were centrifuged to separate plasma and stored at −70 °C until the measurement of plasma concentrations (Cp) of radotinib. The Cp of radotinib in HVs was measured using high-performance liquid chromatography coupled with tandem mass spectrometric detection (HPLC-MS/MS; Prominence HPLC/UFLC/UFLCXR, Shimadzu, Kyoto, Japan; QTRAP 6500+, SCIEX, Marlborough, MA, USA). An internal standard was radotinib-d6 dissolved in acetonitrile to produce working solutions. The linearity of the bioanalytical method was assessed using a calibration curve computed by a weighted (1/x^2) linear regression from seven standard concentrations (5, 10, 30, 100, 300, 1000 and 2000 ng/mL). The method was validated using concentrations of 5, 15, 160 and 1600 ng/mL for the lower limit of quantitation (LLOQ) and low- (LQC), medium- (MQC) and high-quality controls (HQC), respectively.
In patients with CML-CP, the Cp of radotinib was quantified using another HPLC–MS/MS system (LC-20ADXR pump, CTO-20AC column oven, CBM-20A Lite controller and DGU-20A5R degasser, Shimadzu, Kyoto, Japan; API 4000, SCIEX, MA, USA). Glipizide in acetonitrile was used as an internal standard. […]

[3] = set-up: method as in ref 24 = [24]; 24. Kim J. Kang M. Lee Y. Yoo S. Han J. Cho D.J. Lee G.Y. Kim N.Y. Jiang Q. Lee J. Pharmacokinetic characteristics of radotinib assessed in Asian patients with chronic myeloid leukemia Proceedings of; conditions: patients with CML-CP, cited from earlier work
[4] = tested on: patients newly diagnosed with Ph+ CML-CP; set-up: method as in PMID 28939746; conditions: by 12 months, cited from earlier work
[5] = Preliminary pharmacokinetic assessment in patients with CML-CP; assay type: in vivo; conditions: human, plasma, oral, 300 mg twice daily, obtained by doubling the preliminary value of AUC0–12h, read-out: AUC0–24h, previously estimated
patients with CML-CP = tested on: patients with CML-CP; set-up: method as in PMID 24705186; conditions: 400 mg twice daily; 77 patients; at 12 months; cited from earlier work
[6] = cited from earlier work

CL/F, bootstrap estimate median (95% CI) ([2]; bootstrap of 1000 replicates): 23.2 (20.0–26.5) L/h
MTT, bootstrap estimate median (95% CI) ([2]; bootstrap of 1000 replicates): 1.86 (1.43–2.27) h
N, bootstrap estimate median (95% CI) ([2]; bootstrap of 1000 replicates): 6.34 (4.46–10.6)
Q/F, bootstrap estimate median (95% CI) ([2]; bootstrap of 1000 replicates): 126 (88.9–185) L/h
Vc/F age effect, bootstrap estimate median (95% CI) ([2]; bootstrap of 1000 replicates): −0.0127 (−0.0258–−0.003)
Vc/F, bootstrap estimate median (95% CI) ([2]; bootstrap of 1000 replicates): 395 (281–526) L
Vp/F, bootstrap estimate median (95% CI) ([2]; bootstrap of 1000 replicates): 529 (398–733) L
ka, bootstrap estimate median (95% CI) ([2]; bootstrap of 1000 replicates): 1.56 (1.07–3.14) h^−1
σproportional, bootstrap estimate ([2]; bootstrap of 1000 replicates): 20.0%
ωCL/F, bootstrap estimate median (95% CI) ([2]; bootstrap of 1000 replicates): 0.379 (0.301–0.459)
ωIOV, bootstrap estimate median (95% CI) ([2]; bootstrap of 1000 replicates): 0.669 (0.494–0.829)
CL/F slower in CML-CP patients compared with HVs ([2]; final population PK model): 39.2%
MTT (mean transit time), population estimate ([2]; final population PK model): 1.88 h
N (number of transit compartments), population estimate ([2]; final population PK model): 6.58
estimated slope of negative linear effect of age on Vc/F ([2]; final population PK model): −0.0129 per year
ka (first-order absorption rate constant), population estimate ([2]; final population PK model): 1.59 h⁻¹
negative linear relationship of age with Vc/F ([2]; final population PK model): −0.0129 L per year
total V/F (summation of Vc/F and Vp/F) ([2]; final population PK model): 902 L
σproportional (proportional residual error), population estimate ([2]; final population PK model): 20.0%
ωCL/F (interindividual variability of apparent clearance), population estimate ([2]; final population PK model): 0.389
CL/F, population estimate in healthy volunteers ([2]; final population PK model, HVs): 37.9 L/h
Vc/F age effect (slope), population estimate ([2]; final population PK model, linear, age − 31): −0.0129
ωIOV (interoccasion variability), population estimate ([2]; final population PK model, on Vc/F and Vp/F): 0.698
CL/F (apparent clearance), population estimate ([2]; final population PK model, typical patient with CML-CP): 23.0 L/h
terminal half-life (t1/2), population estimate ([2]; healthy volunteers): 18.2 h
half-life ([2]; 300 mg, patients with CML-CP): 28.8 h
half-life ([2]; male, 400 mg, healthy volunteers): 17.5 h
AUC(0-t) [5]: 24000 ng·h/mL
Compound: Cc1cn(-c2cc(NC(=O)c3ccc(C)c(Nc4nccc(-c5cnccn5)n4)c3)cc(C(F)(F)F)c2)cn1 [radotinib]
V/F, preliminary value based on NCA [1]: 1315 L
t1/2, preliminary value [1]: 17.5 h
Cmax, preliminarily assessed value ([3]; 300 mg twice daily): 1595 (1143–2393) ng/mL
tmax, preliminarily assessed value ([3]; 300 mg twice daily): 2.5 (2.0–3.8) h
t1/2, preliminary value [3]: 25.4 h
patients achieving major molecular response (MMR) ([4]; 300 mg twice daily, 37 of 69 patients): 54%
patients achieving major cytogenetic response (MCyR) (patients with CML-CP): 65%
patients attaining complete cytogenetic response (CCyR) (patients with CML-CP): 47%

Compound: Cc1ccc(NC(=O)c2ccc(CN3CCN(C)CC3)cc2)cc1Nc1nccc(-c2cccnc2)n1 [imatinib]
patients achieving major molecular response (MMR) ([4]; once-daily 400 mg, 20 of 66 patients): 30%

Compound: Cc1cn(-c2cc(NC(=O)c3ccc(C)c(Nc4nccc(-c5cccnc5)n4)c3)cc(C(F)(F)F)c2)cn1 [nilotinib]
target Ctrough in terms of favorable molecular responses ([6]; 400 mg once daily): 500 ng/mL
t1/2 [6]: 16 h
